In assay [1] the test system is anxiety phenotype in Fmr-1 KO mice. To be noted: intraperitoneal injections; cited from earlier work.
For assay [2], the system named is dendritic APP in primary neuronal cells. As to the kind of experiment: Immunofluorescence confocal quantitation of dendritic APP in primary cortical neurons. It is filed as cell-based, mouse. As to the method:
Pregnant female mice at embryonic day 18 (E18) were anesthetized with halothane prior to decapitation and transfer of the uterine sac to ice-cold HBSS. […] Cells were counted by trypan blue dye exclusion and plated at 1.25×10^5 cells/ml on poly(D)-lysine-coated glass coverslips in 12-well tissue-culture dishes and cultured for 11 d at 37° C./5% CO2. Half of the culture medium was removed and replaced with fresh, warm medium on day 4. […] All washes and antibody dilutions were in PBS containing 2% FBS. […] Images were acquired with a Nikon C1 laser-scanning confocal microscope with EZ-C1 v2.20 software (Nikon, http://www.nikon.com) at 60× magnification. APP levels in the puncta of four to seven dendrites per sample were quantitated with IMAGE J software using the Analyze Particles function (minimum of 205 puncta analyzed per treatment) (Rasband, Image J, U.S. National Institutes of Health, http://rsb.info.nih.gov/ij; 1997-2006). Figures were assembled with Adobe Photoshop 8.0 (Adobe Systems, http://www.adobe.com). […] It was recognized that SN are a relatively crude preparation of pre- and post-synaptic dendrites that are contaminated with other cell types, such as astrocytes, which form synapses with neurons. Thus, primary E18 cortical neuron cultures were prepared from WT and Fmr-1 KO brains and dendritic APP levels assessed using an immunofluorescence assay. There was a 21% increase in the basal level of APP in untreated dendrites from Fmr-1 KO neurons compared to WT (FIG. 5B). […] Staining of dendritic puncta was analyzed by confocal microscopy and quantitated with Image J software using the Analyze Particles function (a minimum of 475 particles were analyzed per treatment) (Rasband, W. S., Image J, U.S. National Institutes of Health, http://rsb.info.nih.gov/ij; 1997-2006). Duplicate slides were stained for each treatment and the number and intensity of dendritic puncta from three areas of each slide were analyzed and averaged. All MPEP-treated samples were statistically different from untreated controls by t-test analyses (p<0.005) and expressed as standard error of the mean (SEM).

For another assay, the system named is APP translation in SN. Briefly: 35S-Met labeling and immunoprecipitation of newly synthesized APP in synaptoneurosomes. It counts as cell-based, mouse. To be noted: WT SN. The procedure: WT and KO SNs (450 μl) were mixed with 25 μl Redivue Pro-Mix-L [^35S] for 5 min prior to stimulation with 25 μl 2 mM DHPG. Samples were flash frozen at the indicated times. To analyze new protein synthesis, SN lysates were cleared of free isotope, Percoll®, and sucrose by purification with the PAGEprep Advance kit according to the manufacturer's directions. Protein concentrations were determined by the BCA assay, and 15 μg protein was denatured and loaded per lane on 12% SDS gels for content analysis. Gels were dried and exposed to a phosphorimager screen to identify the results of these assays.
To specifically analyze APP synthesis, WT and KO SN lysates (500 μl) were immunoprecipitated with APP antibody. Briefly, SN lysates were precleared with protein A magnetic beads in 1 ml volumes containing 500 μl SNs, 500 μl 2×IP buffer (20 mM HEPES (pH 7.4), 400 mM NaCl, 60 mM EDTA (pH 8), and 2% Triton X-100), protease inhibitor cocktail, and 100 μl packed fresh protein A magnetic beads. For the immunoprecipitations, 10 μg anti-APP antibody (Zymed catalog number 51-2700) and fresh protein A magnetic beads were added and mixed overnight at 4° C. The beads were washed three times with IP buffer, and the final, washed pellets were suspended in 40 μl 2×SDS sample buffer and boiled for 5 min; the proteins were then separated on 12% SDS gels. The gels were transferred to a nitrocelluose membrane, dried, exposed to a phosphorimager screen, and scanned on a STORM 860 phosphorimager (Molecular Dynamics http://www6.amershambiosciences.com). APP bands at 120 kDa were quantitated with ImageQuant software (GE Healthcare Life Sciences, http://www4.amershambiosciences.com).
For mGluR5 inhibitor studies, SNs (425 μl) were preincubated with 25 μl anisomycin (40 μM final concentration) or MPEP (10 μM final concentration) for 10 min prior to the addition of 25 μl ^35S-Met for 5 min and stimulation with DHPG (100 μM final concentration) for 15 min. Samples were processed as described in the preceding paragraph.
To further assess FMRP regulation of APP levels in brain, cortical SN were prepared from WT mice and overall protein synthesis analyzed in response to DHPG (100 μM)-induced mGluR5 activation. SN were metabolically active as assessed by ^35S-Met incorporation. […]
These conclusions were tested by assessing the effects on APP translation of contacting SN with a group 1 mGluR5 antagonist, 2-methyl-6-(phenylethynyl)-pyridine (MPEP). […] To assess the effect of MPEP, a specific mGluR5 antagonist, on DHPG stimulation of de novo APP synthesis, SN were pre-treated with 10 μM MPEP for 10 min prior to the addition of ^35S-Met for 5 min and stimulation with 100 μM DHPG for 15 min. ^35S-Met-labeled APP was immunoprecipitated with anti-APP antibodies and analyzed by SDS-PAGE. […]

Where [3] appears, read: WT primary neuronal cells, 10 μM MPEP.

Molecules are shown by their SMILES.

Regarding `Cc1cccc(C#Cc2ccccc2)n1` [MPEP, 2-methyl-6-(phenylethynyl)pyridine], the “effect on anxiety phenotype” value in assay [1] was “reduce”. The “decrease in dendritic APP (average particle intensity)” value in assay [2] (WT C57BL/6 primary neuronal cells, 10 μM MPEP, 15 min) was determined as 37%. Besides, in assay [2] (setting [3]), the “decrease in area of each particle” value is given as 22% and the “increase in number of particles in a defined area” value stood at 29%. Also, in assay [2] (WT primary neuronal cells, 10 μM MPEP, 4 hr and 1 day), the “decrease in dendritic APP at later times” value was “persisted”. Further, the “effect on DHPG-mediated synthesis of APP” value in the assay with APP translation in SN (10 μM MPEP pre-treatment 10 min, 100 μM DHPG 15 min) is recorded as “blocked”.
Consider `N[C@@H](C(=O)O)c1cc(O)cc(O)c1` (racemic) [DHPG, (R,S)-3,5-dihydroxyphenylglycine], for which the “increase in dendritic APP levels” value in assay [2] (Fmr-1 KO cultures, DHPG 10 and 20 min) is given as “no increase”; in assay [2] (WT neurons, 100 μM DHPG, 10 and 20 min), 18-25%. For the same compound, the “increase in APP translation” value with APP translation in SN (100 μM DHPG, 15 min) is listed as 2.7 fold. Moreover, in the assay on APP translation in SN (100 μM DHPG, 1 hr), the “increase in APP translation over control” value is 1.6 fold.

The record behind these values is patent publication US20130149721A1, “Methods for Inhibiting Amyloid Precursor Protein and Beta-Amyloid Production and Accumulation” (WISCONSIN ALUMNI RESEARCH FOUNDATION, priority 2008, published 2013).
